Reference: patent publication US20110269226A1, “Microfluidic Continuous Flow Device for Culturing Biological Material” (priority 2008, published 2011)

Experiments:
medeka fish embryo = assay: Effect of chemical substances on fish embryo development in cultivation chamber of microfluidic continuous flow device; type: in vivo, Medaka (Oryzias latipes); details: for death of the Medaka embryos: after 25 hours
Text: A medeka fish embryo was introduced into the cultivation chamber using a pipette. The fish embryos maintain the same size until they hatch. Once all the embryos are transferred to the 8 wells of the microfluidic continuous flow device shown in FIG. 1, a coverslip is placed over the wells to seal them off.
In two different experiments EtOH (ethanol, 0-5%) and TAA ([…], 0-3%) were used as chemical substances to test the reaction of the fish embryo retained in the cultivation chamber of the microfluidic continuous flow device shown in FIG. 1. Both substances affect the liver (TAA induces lipid peroxidation which leads to liver damage). An over-dosage of both will lead to death. The flow rate in the microfluidic continuous flow device is about 1 ml/2.5 hours or 400 μl/h.

zebrafish = details: cited from earlier work

SMILES: CCO [EtOH, ethanol]
- intoxication of the embryo versus concentration (medeka fish embryo; EtOH 0 to 5 v/v %, over 25 hours): The higher the concentration of the EtOH, the intoxicated the embryo is
- effect on organs (medeka fish embryo; EtOH highest concentration (4.27% and 5%), 25 hours): the organs seem to be affected
- organ colour change (medeka fish embryo; ethanol, the higher concentrations): the organs turned black
- number of twitches (movements) of the embryo in the chamber (medeka fish embryo; rising ethanol concentration (0 to 5 v/v %)): the number of twitches rose with the ethanol concentration

SMILES: CC1(C)O[C@@H]2C[C@H]3[C@@H]4CCC5=CC(=O)C=C[C@]5(C)[C@@]4(F)[C@@H](O)C[C@]3(C)[C@]2(C(=O)CO)O1 [TAA, triamcinolone acetonide]
- death of the Medaka embryos (medeka fish embryo; TAA 1.5, 2 and 2.5 v/v %): died
- death of the Medaka embryo (medeka fish embryo; TAA 3 v/v % (highest concentration), after 21 hours, stage 38): died and caused the death of the Medaka embryo
- death of the Medaka embryos (medeka fish embryo; TAA, the 4 highest concentrations): had died

SMILES: CNC(=O)Oc1cccc2ccccc12 [carbaryl]
- effects observed on early development (zebrafish): Red blood cell accumulation and delayed hatching
